# Laboratory results as given in US12115208B2, “Small-molecule adjuvants for antibiotics to address antibiotic resistance” (HIGH POINT UNIVERSITY, priority 2017, dated 2024).
# Where “and” joins values, the source holds several entries; their conditions need not be identical. Identical values can stand only once. Like-named read-outs stand apart in the source and are kept apart here.
# Assays:
# S. epidermidis 49461 = experiment: Antibiotic repotentiation (oxacillin MIC with/without compound); format: cell-based, Staphylococcus epidermidis
# Description: (§1) The overnight culture was diluted into fresh CAMHB to a concentration of 5×10^5 CFU/ml. […] On the same plate, a standard microdilution MIC with the tested antibiotics and no added compound was also performed to compare the antibiotic MIC in the presence and absence of compound. […] Fold reductions were calculated by dividing the MIC of the antibiotic without compound by the MIC of the antibiotic in the presence of compound.
# Antibiotic potentiation in S. epidermidis was also investigated.
# MRSA = experiment: Growth curves; format: cell-based, Staphylococcus aureus; settings: MRSA in CAMHB; for effect on cell density (OD 600 nm) after 24 hours: single treatment: oxacillin 1 μg/mL alone or amoxapine 150 μM alone
# Description: The overnight culture was diluted into fresh CAMHB to a concentration of 5×10^5 CFU/ml. The cell suspension (3 mL) was aliquoted into sterile culture tubes and compound was added to achieve the desired concentrations. An untreated aliquot served as the control. 200 μl of each suspension or of the untreated control was aliquoted into a flat-bottomed microtiter plate. The plate was maintained at 37° C. with shaking and absorbance readings (600 nm) were recorded every 30 minutes for 24 hours.
# MRSA was grown in cation-adjusted Mueller-Hinton broth (CAMHB). […] The optical density of the cultures at 600 nm was measured every 2 hours for 8 hours and again at 24 hours.
# [1] = target: β-lactamase, MSSA ATCC 29213 (Staphylococcus aureus, UniProt P00807); settings: MSSA 29213
# Description: For whole cell nitrocefin assays, bacteria was cultured overnight in CAMHB at 37° C. with shaking. The overnight culture was subcultured 1:100 in fresh CAMHB and grown at 37° C. with shaking to mid-log phase (OD600=0.4-0.6). The culture was adjusted to an OD600 of 0.2 in fresh CAMHB. […] These suspensions were incubated at 37° C. with shaking for thirty minutes. The suspensions were adjusted to an OD600 of 0.132 in phosphate buffered saline (PBS, pH 7, 900 μl). A 100 μl of a stock solution of nitrocefin (500 mg/ml in PBS) was added to these suspensions and mixed. The nitrocefin-bacteria suspensions (100 μl) were added to the wells of a clear 96-well polystyrene microtiter plate. A 50 mg/ml solution of nitrocefin in PBS served as a blank. Using BioTek Synergy H1 microplate reader maintained at 37° C., the absorbance at 486 nm was recorded every 5 minutes for 2 hours.
# The known β-lactamase inhibitor sulbactam was used as a positive control. Again, all assays were run in triplicate and each data point represents the average of three data points.
# blaZ mRNA = experiment: RT-qPCR mRNA levels; format: cell-based, Staphylococcus aureus (MRSA)
# Description: (§2) Triplicate cultures of each condition were briefly centrifuged and cell pellets were stored at −80° C. Pellets were resuspended in 100 uL of lyphostaphin (1 mg/mL) and incubated at room temperature for 10 minutes. Next, lysates were subjected to a Qiashredder column and RNA was purified with RNeasy columns according to the manufacturer's protocol (Qiagen). An on-column DNase step was also included. Total RNA was quantified and purity was assessed with a Nanodrop spectrophotometer (Thermo Scientific). RNA integrity was visualized by agarose gel electrophoresis using GelRed (Phenix) and a ChemiDoc MP (BioRad).
# (§3) 200 ng of total RNA was reverse transcribed using random primers, according to the manufacturer's protocol (BioRad select cDNA synthesis kit). Minus reverse transcriptase controls were prepared for each sample. Next, duplicate qPCR reactions were performed for each cDNA template using SYBR green according to the manufacturer's protocol (BioRad SYBR Green Supermix). Primer sequences are found in Supporting Information. Those that the authors designed used NCBI Primer Blast to specify the annealing temperatures, length, location, and analyze specificity and secondary structure. All reactions were run on a StepOne thermal cycler (Applied Biosystems). Cycling parameters were as follows: 95° C. for 10 minutes, 40 cycles of 95° C. for 15 seconds followed by 60° C. for 1 minute. Specificity of each primer pair was assessed with melt curve analyses and agarose gel electrophoresis. The efficiency of each primer pair was calculated using results from calibration curves generated in Microsoft Excel. Contaminating genomic DNA levels were calculated using the comparative Ct method. Gene expression levels relative to 16S rRNA were calculated using a relative quantification model.^17 Statistical significance was determined by unpaired student's t tests. All calculations were performed using Microsoft Excel.
# (§4) See Blazquez, B. et al., “Regulation of the expression of the beta-lactam antibiotic-resistance determinants in methicillin-resistant Staphylococcus aureus (MRSA),” Biochemistry 2014, 53 (10), 1548; Staude, M. W. et al., “Investigation of signal transduction routes within the sensor/transducer protein BlaR1 of Staphylococcus aureus,” Biochemistry 2015, 54 (8), 1600; Thumanu, K., et al., “Discrete steps in sensing of beta-lactam antibiotics by the BlaR1 protein of the methicillin-resistant Staphylococcus aureus bacterium,” Proc Natl Acad Sci USA 2006, 103 (28), 10630, which are incorporated herein by reference in their entireties.
# blaI mRNA = experiment: RT-qPCR mRNA levels; format: cell-based, Staphylococcus aureus (MRSA)
# Description: as §2, §3, §4
# S. aureus ATCC 29213 [2] = experiment: Antibiotic repotentiation (antibiotic MIC with/without compound); format: cell-based, Staphylococcus aureus; settings: for Oxacillin MIC: ATCC 29213
# Description: as §1
# (§5) The compounds were then analyzed for antibiotic repotentiation activity. […] The tested strains included USA300, which is a common and particularly virulent strain of community-acquired MRSA.
# S. aureus USA300 (MRSA) [3] = experiment: as above; format: cell-based, Staphylococcus aureus; settings: for MIC of antibiotic: MRSA USA300
# Description: as §1, §5
# S. aureus 43300 (MRSA) = experiment: as above; format: cell-based, Staphylococcus aureus
# Description: as §1, §5
# [4] = test system: S. aureus NR-49120 (VRSA); experiment: as above; format: cell-based, Staphylococcus aureus; settings: VRSA NR-49120
# Description: as §1
# S. aureus USA100 (MRSA) = experiment: as above; format: cell-based, Staphylococcus aureus; settings: for MIC of antibiotic: MRSA USA100
# Description: as §1
# S. aureus ATCC 29213 [5] = experiment: Minimum inhibitory concentration, broth microdilution; format: cell-based; settings: Staphylococcus aureus, ATCC29213; compound alone; S. aureus ATCC 29213; CAMHB, 18 h; read-out: MIC
# Description: as §5
# mecA mRNA = format: cell-based, Staphylococcus aureus (MRSA); settings: co-treatment amoxapine and oxacillin vs oxacillin alone
# Description: as §2
# (§6) 200 ng of total RNA was reverse transcribed using random primers, according to the manufacturer's protocol (BioRad select cDNA synthesis kit). Minus reverse transcriptase controls were prepared for each sample. […] Specificity of each primer pair was assessed with melt curve analyses and agarose gel electrophoresis. The efficiency of each primer pair was calculated using results from calibration curves generated in Microsoft Excel. Contaminating genomic DNA levels were calculated using the comparative Ct method. Gene expression levels relative to 16S rRNA were calculated using a relative quantification model.^17 Statistical significance was determined by unpaired student's t tests. […]
# mecI mRNA = format: cell-based, Staphylococcus aureus (MRSA); settings: co-treatment amoxapine and oxacillin vs oxacillin alone
# Description: as §2, §6
# S. aureus USA300 (MRSA) [6] = experiment: Minimum inhibitory concentration, broth microdilution; format: cell-based, Staphylococcus aureus; settings: Staphylococcus aureus; compound alone; S. aureus USA300 (MRSA); CAMHB, 18 h; read-out: MIC
# Description: as §5
# [7] = test system: S. aureus ATCC 43300 (MRSA); experiment: as above; format: cell-based, Staphylococcus aureus; settings: Staphylococcus aureus; compound alone; S. aureus ATCC 43300 (MRSA); CAMHB, 18 h; read-out: MIC
# Description: as §5
# pbp2 mRNA = experiment: RT-qPCR mRNA levels; format: cell-based, Staphylococcus aureus (MRSA); settings: co-treatment amoxapine and oxacillin vs oxacillin alone
# Description: as §2, §6
# [8] = treatment alone, compared to untreated cells
# [9] = oxacillin treatment, relative to 16S rRNA
# [10] = co-treatment amoxapine and oxacillin vs oxacillin alone
# Sequence of β-lactamase, MSSA ATCC 29213 (P00807 25-281): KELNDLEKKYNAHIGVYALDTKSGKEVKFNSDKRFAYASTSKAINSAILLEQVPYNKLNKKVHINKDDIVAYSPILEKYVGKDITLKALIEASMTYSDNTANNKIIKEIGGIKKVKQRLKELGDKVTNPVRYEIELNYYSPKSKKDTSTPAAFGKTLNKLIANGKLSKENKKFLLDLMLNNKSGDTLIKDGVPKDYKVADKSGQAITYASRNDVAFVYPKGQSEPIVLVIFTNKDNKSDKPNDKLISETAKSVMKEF
structure (smiles),measurement,setting,value
Cc1onc(-c2ccccc2)c1C(=O)N[C@@H]1C(=O)N2[C@@H]1SC(C)(C)[C@@H]2C(=O)O [Oxacillin],MIC,"S. epidermidis 49461; Staphylococcus epidermidis, 49461, 18 h, read-out: Oxacillin MIC",16 µg/mL
same,effect on cell density (OD 600 nm) after 24 hours,MRSA,negligible effect
same,effect on β-lactamase activity (nitrocefin hydrolysis),[1]; [8],little effect
same,increase in blaZ mRNA,blaZ mRNA; [9],38 fold
same,increase in blaI levels,blaI mRNA; [9],13 fold
same,MIC,"S. aureus ATCC 29213 [2]; Staphylococcus aureus, ATCC29213, read-out: Oxacillin MIC",0.25 µg/mL
same,MIC of antibiotic,S. aureus USA300 (MRSA) [3]; +Loratadine 25 μM,2 µg/mL
same,MIC of antibiotic,S. aureus USA300 (MRSA) [3]; +Loratadine 50 μM,0.5 µg/mL
same,MIC,"S. aureus USA300 (MRSA) [3]; Staphylococcus aureus, read-out: Oxacillin MIC, oxacillin alone, S. aureus USA300 (MRSA)",32 µg/mL
same,MIC of antibiotic,S. aureus USA300 (MRSA) [3]; antibiotic alone,32 µg/mL
same,Oxacillin MIC,"S. aureus USA300 (MRSA) [3]; oxacillin alone, S. aureus USA300 (MRSA)",64 µg/mL
same,MIC of antibiotic,"S. aureus 43300 (MRSA); +Amoxapine (150 μM), S. aureus 43300 (MRSA)",2 µg/mL
same,MIC of antibiotic,"S. aureus 43300 (MRSA); +Loratadine 25 μM, MRSA 43300",4 µg/mL
same,MIC of antibiotic,"S. aureus 43300 (MRSA); +Loratadine 50 μM, MRSA 43300",1 µg/mL
same,MIC of antibiotic,"S. aureus 43300 (MRSA); antibiotic alone, no compound, S. aureus 43300 (MRSA)",32 µg/mL and 16 µg/mL
same,MIC of antibiotic,"S. aureus 43300 (MRSA); antibiotic alone, S. aureus ATCC 43300 (MRSA)",32 µg/mL
same,MIC of antibiotic,[4]; +Loratadine 25 μM,64 µg/mL
same,MIC of antibiotic,[4]; +Loratadine 50 μM,16 µg/mL
same,MIC of antibiotic,S. aureus USA100 (MRSA); +Loratadine 50 μM,0.25 µg/mL
same,MIC,"S. aureus USA100 (MRSA); Staphylococcus aureus, read-out: Oxacillin MIC",512 µg/mL
same,MIC of antibiotic,S. aureus USA100 (MRSA); antibiotic alone,256 µg/mL
"Clc1ccc2c(c1)C(N1CCNCC1)=Nc1ccccc1O2 [Amoxapine, 2-chloro-11-(1-piperazinyl)dibenz[b,f][1,4]oxazepine]",MIC,S. aureus ATCC 29213 [5],600 µM
same,Oxacillin MIC,"S. epidermidis 49461; +75 μM compound, S. epidermidis 49461",4 µg/mL
same,effect on cell density (OD 600 nm) throughout the experiment,"MRSA; combination of oxacillin (1 μg/mL) and amoxapine (150 μM), 24 h",potent inhibition of cell density
same,effect on cell density (OD 600 nm) after 24 hours,MRSA,negligible effect
same,reduction in mecA mRNA levels,mecA mRNA,4.5 fold
same,reduction in mecI mRNA levels,mecI mRNA,3.0 fold
same,effect on β-lactamase activity (nitrocefin hydrolysis),[1]; oxacillin in combination with amoxapine,little effect
same,effect on β-lactamase activity (nitrocefin hydrolysis),[1]; [8],no effect
same,effect on mRNA levels,blaZ mRNA; amoxapine alone vs untreated control (data not shown),no significant effect
same,reduction in blaZ levels,blaZ mRNA; [10],3.0 fold
same,reduction in blaI levels,blaI mRNA; [10],2.2 fold
same,MIC,S. aureus USA300 (MRSA) [6],600 µM
same,MIC,[7],600 µM
same,Oxacillin MIC,S. aureus ATCC 29213 [2]; +75 μM compound,0.25 µg/mL
same,Oxacillin MIC,S. aureus ATCC 29213 [2]; +150 μM compound,0.125 µg/mL
same,Oxacillin MIC,"S. aureus USA300 (MRSA) [3]; +75 μM compound, USA300 (MRSA)",16 µg/mL
same,Oxacillin MIC,"S. aureus USA300 (MRSA) [3]; +150 μM compound, USA300 (MRSA)",2 µg/mL
same,effect on mRNA levels of pbp2,pbp2 mRNA,no significant effect
